Results on 14 substances are retold here after article PMC10447463, “Data-mining unveils structure–property–activity correlation of viral infectivity enhancing self-assembling peptides” (Nature Communications, 2023).

A short description of data set [1]: Aggregate analysis by widefield fluorescence microscopy. To be noted: for Number of Aggregates / Aggregate Number: ThT-stained aggregates > 10 µm2 in 1330 µm × 1330 µm, 1 mg/mL 1 d, diluted to 0.1 mg/mL with 50 µM ThT, 3D object counter ImageJ, triplicate. The format is physicochemical. Here is the method:
4 µL of 1 mg/mL peptide fibrils solution is added to a 20 µL, 50 µM ThT–solution in PBS. The mixture is incubated for 15 min at RT to allow binding of ThT dye with β–sheet rich structures. For reference PBS (4 µL) was added instead of peptide fibril solution. The samples were placed in black UV Star® 384 microliter well–plates (Greiner bio–one). Fluorescence spectra were recorded on an Infinite® M1000 PRO microplate reader (Tecan) at λem = 488 nm upon excitation at λex = 440 nm with 10 nm bandwidths and multiple reads per well (3×3). Measurements were repeated in triplicates and averaged with standard deviation. A peptide fibril was considered as ThT-active if the fluorescence intensity was at least twice as strong compared to the control (PBS containing 10% DMSO). Zeta-Potential. For the determination of the surface charge of aggregated peptides zeta-potential measurements were conducted with a Zetasizer Nano ZS, Malvern Instruments. Unless stated otherwise the peptides were dissolved from DMSO (10 mg/mL) in PBS (pH 7.4) to concentration of 1 mg/mL and incubated for 1d at RT. Just before the measurement the 60 µL of the peptides were further diluted in 600 µL KCl (aq, 1 mM) in a 1 mL disposable folded capillary cells (DTS–1060, Zetasizer Nano series, Malvern). The zeta potential of the peptides was derived from the electrophoretic mobility based on the Smoluchowski formula. All measurements were averaged over two individually performed experiments and conducted in triplicates for each sample. Aggregate analysis. […] Furthermore, fluorescence microscopy was conducted by staining 1 µL preformed fibrils (1 mg/mL) with 9 µL ThT (50 µM). Brightfield microscopy was performed simultaneously to evaluate aggregation also for non ThT-active fibrils. The measurements were performed on a Leica DMi8 microscope with 10x air objective and equipped with a Leica MC170 HD camera with a filter setting λem = 527/30 nm upon excitation at λex = 480/40 nm) and processed with the Leica LASX software. To quantify size and number of microscopic aggregation of particles > 10 µm^2 at least 3 independently measured images were analyzed via the 3D object counter analysis tool of ImageJ, v 1.53f51. Sum–frequency generation. The SFG experiments were carried out with a femtosecond Ti: Sapphire amplified laser system (Spitfire Ace, Spectra–Physics, 800 nm, 40 fs, 1 kHz) with 5 W output power. We used 2 W to pump an optical parametric amplifier (TOPAS, light conversion) with a non–collinear difference frequency generation stage to generate broadband IR pulses. Another 1 W of the laser output passed through an etalon to generate narrowband visible pulses (10 cm^-1). The incident angles of the visible and IR beams were 36° and 41° with respect to the surface normal, respectively. The visible (13 µJ) and IR (5 µJ) pulses were overlapped spatially and temporally at the sample position. Subsequently, the generated SFG pulse was guided into a spectrograph (Acton SP 300i, Princeton Instruments), and detected with an EMCCD (Newton, Andor Technology). To avoid IR absorption of water vapor, we purged N2 for the measurement. All spectra were collected in the ssp (denoting s-, s- and p-polarized SFG, visible and IR, respectively) polarization combination. The spectra were normalized to the non–resonant signal taken from z–cut quartz after subtracting a background spectrum.
Table S8 Summary of aggregate analysis from widefield microscopy measurements (Figure S32). The Number of aggregated peptides, the median size area, average size area
and the cumulative total size area of all particles (> 10 µm2) in an area of 1330 µm × 1330 µm was determined via automated 3D object counting (ImageJ) in triplicate
measurements (Std. Dev.).
Aggregate Std. Dev. Std. Dev. Std. Dev. Std. Dev.
Sequence Abs. Inf. / Std. Dev. / Count Rate / Std. Dev. Number Aggregate Median Area Median Area Average Area Average Area Total Area/ Total Area/ […]

The subject of data set [2] is TZM-bl cells. The data set is classed as cell-based. To be noted: CellTiter-Glo, mean of n = 3 replicates. As to the method: The cell viability after addition of peptides to TZM–bl cells was studied via the CellTiter–Glo assay. To this end, 10,000 cells were seeded and on the next day serial diluted peptides were added. After 3 days the supernatant was removed and 100 µL CellTiter–Glo Reagent 1:1 diluted in PBS was added. After 10 min 50 µL was transferred to white microplate and luminescence was recorded by Orion microplate luminometer.
2. Cell Viability of Representatively Selected Peptides
Figure S 2 Cell Viability normalized to 100% metabolic activity as determined by CellTiterGlo Assay of 57 representatively selected peptides from the library. The selection represents infectivity enhancing and not […]
concentration. Error bars indicate standard deviation from triplicate measurements. Source data for Figure S2 […]
Figure S3 Cell Viability normalized to 100% metabolic activity determined by CellTiterGlo Assay of 20 peptides reported in literature. 33,34,43–48,35–42 Cell viability (> 80%) is maintained for all peptides at 1.3 µM concentration regardless of the preparation method, which is A PNF formation method by dilution of 10 mg/mL peptide stock in DMSO in PBS to 1 mg/mL or B preparation according to literature reported protocol (SI Section 8). Error bars indicate standard deviation from triplicate measurements. Source data for Figure S3 is provided.

The conditions of data set [3]: previously reported peptides only; ref sieste 2021 or Schilling2019; cited from earlier work. The text has this:
Supplement 41467_2023_40663_MOESM7_ESM.zip/FigS17.csv, table | column: Conversion Rate / % ( from sieste 2021 or Schilling2019)

Where “and” joins values, the source holds several entries; their conditions need not be identical. Equal values may be shown once.

Take CKAKAQANMWQ: the “Number of Aggregates / Aggregate Number” value in data set [1] was 6.

Consider CKFKFQFW, for which, in data set [1], the “Number of Aggregates / Aggregate Number” value is recorded as 517.

Take CKFKQFFNM: the “Number of Aggregates / Aggregate Number” value in data set [1] is 704 ± 90 and 704.

On to CKIKIQI, for which, in data set [1], the “Number of Aggregates / Aggregate Number” value is 317 ± 36 and 317.

For the substance CKIKQII, the “Number of Aggregates / Aggregate Number” value in data set [1] is 76 ± 12 and 76.

With CKIKQIINMWQ, the “Number of Aggregates / Aggregate Number” value in data set [1] was found to be 195.

Consider CQFQFQF, for which, in data set [1], the “Number of Aggregates / Aggregate Number” value amounted to 46.

Regarding CSISIQI, the “Number of Aggregates / Aggregate Number” value in data set [1] is 123.

HHHHKIKIKIKIWWWW: in data set [1], the “Number of Aggregates / Aggregate Number” value turned out to be 446.

For the substance HHHHKIKIKIKIWWWW [TM4], in data set [1] (Fig S8 panels A, C), the “Avg Area in 3 *(1330 µm *1330 µm)” value is listed as 50.02, the “Log 10 Number of aggregates in 3 * (1330 µm *1330 µm)” value came to 2.649, the “Median Area in 3 * (1330 µm *1330 µm)” value stood at 24.51 and the “log Avg Area in 3 * ( (1330 µm *1330 µm))” value was found to be 1.699. In addition, in data set [1] (Fig S8 panels A, C), the “log Median Area in 3 * ( (1330 µm *1330 µm))” value came out at 1.389 and the “log Total Area of all particles in 3 * (1330 µm *1330 µm)” value was determined as 4.348. Also, the “Number of aggregates in 3 * (1330 µm *1330 µm)” value in data set [1] (Fig S8 panels A, C, 3 fields of 1330 µm x 1330 µm) stood at 445.7. Also, the “Avg Area in 3 *(1330 µm *1330 µm)” value in data set [1] (Fig S8 panels B, D, average aggregate area, 3 fields of 1330 µm x 1330 µm) worked out at 50.02. Also, the “Median Area in 3 * (1330 µm *1330 µm)” value in data set [1] (Fig S8 panels B, D, median aggregate area, 3 fields of 1330 µm x 1330 µm) turned out to be 24.51. In addition, the “Total Area of all particles in 3 * (1330 µm *1330 µm)” value in data set [1] (Fig S8 panels B, D, total area of all particles, 3 fields of 1330 µm x 1330 µm) was found to be 22293.86733. Moreover, in data set [1] (Fig S8 panels B, D, widefield fluorescence microscopy, 3 fields of 1330 µm x 1330 µm), the “Number of aggregates in 3 * (1330 µm *1330 µm)” value turned out to be 445.7. For the same substance, the “viability 0.26 µM” value in data set [2] (peptide 0.26 µM) is 89.63. In addition, in data set [2] (peptide 1.3 µM), the “viability 1.3 µM” value came out at 83.12. Besides, the “viability 6.5 µM” value in data set [2] (peptide 6.5 µM) was 68.76. In addition, in data set [3], the “Conversion Rate / % ( from sieste 2021 or Schilling2019)” value is 96%.

HHHHKIKIKIKIYYYY: in data set [1], the “Number of Aggregates / Aggregate Number” value was 147.

For HHHHKIKIQINMYYYY, the “Number of Aggregates / Aggregate Number” value in data set [1] is listed as 234.

Turning to KIKIQIC, in data set [1], the “Number of Aggregates / Aggregate Number” value amounted to 82.

Consider RGDSGGGGGGKIKIQIC, for which the “Number of Aggregates / Aggregate Number” value in data set [1] amounted to 72.
